{
  "source": "paper PMC4339887",
  "about": "“Selective Sirt2 inhibition by ligand-induced rearrangement of the active site” (Nature Communications, 2015)",
  "key": {"[1]": {"system": "p53-Lys382-acetylation in U2OS cells", "assay": "p53 acetylation after ultraviolet exposure, western blot", "format": "cell-based", "settings": "1 h pretreatment, 20 J cm^-2 UV, further 6 h", "procedure": "U2OS cells (ATCC accession no. HTB-96) were seeded and cultured until they reached 90% confluency. […] Cells were incubated for an additional 6 h in the presence of the inhibitor and then lysed in IPLS (50 mM Tris/HCl, 150 mM NaCl; 0.5 mM EDTA; 0.5% (v/v) NP-40; 1 × Complete Protease Inhibitors (Roche), pH 8.0) and resuspended in 1 × Laemmli Buffer. Samples were then separated on SDS–PAGE, transferred to a nitrocellulose membrane (Bio-Rad), blocked with non-fat dry milk (Roth, 5% (w/v), TBS, 0.1% (v/v) Tween 20) and probed with anti-acetyl-p53 K382 (Cell Signaling, #2522), anti-p53 DO.1 (Santa Cruz Biotechnology, sc-126) and anti-vinculin (Cell Signaling, #4650) as a loading control. Uncropped blots are shown in the Supplementary Fig. 10."}, "[2]": {"system": "mitochondrial lysine-acetylation in HEK293 cells", "assay": "mitochondrial protein acetylation, western blot of mitochondrial extracts", "format": "cell-based", "settings": "16 h", "procedure": "page 27: Cell cultiva tion. HEK-293 cells (ATCC accession no. CRL-1573) were grown in Dulbecco's modified Eagle's medium (DMEM, PAA) containing 10% (vol/vol) fetal calf serum (FCS, PAA), 1% (vol/vol) penicillin (PAA), 1% (vol/vol) streptomycin (PAA), 1% (vol/vol), L- glutamine (PAA) at 37 °C in a 5% (vol/vol) CO2 atmosphere. Mitochondrial extra ction. HEK-293 cells (ATCC accession no. CRL-1573) were treated with nicotinamide or […]2 at the indicated concentrations for 16 h. Cells were washed in PBS and lysed in 5 packed cell volumes of lysis buffer (20 mM HEPES/KOH, 250 mM sucrose; 10 mM KCl, 1.5 mM MgCl2, 1 mM EDTA, 1 mM EGTA, 1 mM DTT; 0.1 mM PMSF, 1uComplete Protease Inhibitor Cocktail (Roche), pH 7.5). Cells were then homogenized in a Dounce homogenizer and 10% (vol/vol) of sample was removed for use as whole cell extract (WCE). To the remaining lysate, unbroken cells and nuclei were removed by centrifugation (10 min, 800g). The supernatant was transferred and centrifuged (10 min, 7,000g) to pellet mitochondria. Mitochondria were washed twice in lysis buffer, repeating centrifugation after each wash, followed by resuspending washed mitochondria in lysis buffer. […] Lysates were cleared by centrifugation, protein concentrations were quantitated and normalized with 1u Laemmli Buffer. […]"}, "HeLa cells": {"system": "HeLa cells", "assay": "cell cycle analysis, propidium iodide flow cytometry", "format": "cell-based", "settings": "treated as for BubR1", "procedure": "reader (BMG Polarstar, Oex 390 nm, Oem 460 nm). The amount of inhibition was determined with respect to the mixture with only DMSO.\nImmunocytochemistry equipment and settings. The signal of Alexa 546 and DAPI of the same region were acquired with constant illumination parameters as grayscale 8-bit 600 dpi tiff files (1600u 1200 pixels). Alexa 546 was acquired after 639.1 ms with a gamma factor of 0.65 without multiplying. The gain was set to 1. DAPI-stained images were acquired after about 20 ms with the same parameters as the one for Alexa 546 image acquisition. The temperature in the microscope room was kept at RT. Representative regions of each samples were processed with Adobe Photoshop CS2 to generate images in RGB mode by copying the appropriate original greyscale images to the blue (nuclei, DAPI) and the red (acetylated D-tubulin signal, Alexa 546) channel, respectively. As adjustment, a minimal background subtraction was applied on all images during processing in the same manner. The resolution was changed from 600 dpi (source images) to 450 dpi without resampling (Fig. 7 of the main article). LUT (CLUT) of grayscale images of the acetylated D-tubulin signal and of the DAPI signal are shown in Supplementary Fig. 8.\nCell Cycle Analysis. […] Stained cells were subjected to flow cytometric analysis using a FACSCaliber (BD Biosciences) and analyzed by FlowJo software (Tree Star, Inc.)."}, "human Sirt6": {"target": "T1, human Sirt6 (Homo sapiens, UniProt Q8N6T7)", "T1 construct": "human Sirt6_13–308 (Uniprot: Q8N6T7); made in house", "T1 sequence (Q8N6T7 13-308)": "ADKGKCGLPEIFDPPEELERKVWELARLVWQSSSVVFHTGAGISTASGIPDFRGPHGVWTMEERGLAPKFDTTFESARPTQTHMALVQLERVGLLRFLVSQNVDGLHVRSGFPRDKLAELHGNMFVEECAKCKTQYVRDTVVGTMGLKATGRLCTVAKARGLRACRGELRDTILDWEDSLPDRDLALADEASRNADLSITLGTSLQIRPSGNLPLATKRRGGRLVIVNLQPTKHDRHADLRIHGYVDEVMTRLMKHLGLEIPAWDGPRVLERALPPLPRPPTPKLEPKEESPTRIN", "assay": "HPLC-based assay, non-labelled myristoyl-lysine peptide", "format": "biochemical", "settings": "myristoyl-lysine substrate"}, "BubR1 in HeLa cells": {"system": "BubR1 in HeLa cells", "assay": "abundance of BubR1, western blot", "format": "cell-based", "procedure": "Cells were washed with PBS, lysed in IPLS (50 mM Tris/HCl, 150 mM NaCl, 0.5 mM EDTA, 0.5% (v/v) NP-40, pH 7.5, supplemented with Complete protease inhibitors (Roche)). Samples were pelleted and resuspended in 1 × SDS–PAGE sample buffer and heated (95 °C, 5 min). Cell samples were separated using SDS–PAGE (10% (w/v) polyacrylamide), transferred to a nitrocellulose membrane (Bio-Rad), blocked with non-fat dry milk (Roth, 5% (w/v), TBS, 0.1% (v/v) Tween 20) and probed with the anti-BubR1 (1:5,000, BD Biosciences, 612502) and anti-tubulin (1:5,000, Sigma-Aldrich, T5168) as a loading control. Uncropped blots are shown in the Supplementary Fig. 8."}},
  "note": "“Also recorded” adds a separate entry of the source.",
  "data": [
    {"smiles": "Cc1cc(C)nc(SCC(=O)Nc2ncc(Cc3cccc4ccccc34)s2)n1", "note": "[SirReal2]", "values": [
      {"measurement": "acetylation of p53 (Lys382) after ultraviolet exposure", "setting": "[1]", "result": "does not affect; also recorded: did not observe an increase; also recorded: does not alter"},
      {"measurement": "acetylation of mitochondrial proteins", "setting": "[2]", "result": "does not alter"},
      {"measurement": "cell cycle distribution", "setting": "HeLa cells", "result": "did not alter"},
      {"measurement": "inhibition at 200 µM", "setting": "human Sirt6", "result": 19, "unit": "%"},
      {"measurement": "abundance of BubR1", "setting": "BubR1 in HeLa cells; 50 μM, in relation to DMSO control", "result": "significantly reduced"},
      {"measurement": "abundance of BubR1", "setting": "BubR1 in HeLa cells; various concentrations, 16 h", "result": "reduction; also recorded: dose-dependent depletion"}
    ]}
  ]
}
